Laboratory results published in patent US11427567B2, “Imidazolyl pyrimidinylamine compounds as CDK2 inhibitors” (Incyte Corporation, priority 2019, dated 2022).

molecular target: CDK2/Cyclin E1 (Homo sapiens (Human), UniProt P24941); test: CDK2/Cyclin E1 HTRF enzyme activity assay (Example A); format: biochemical; conditions: 1 mM ATP
Description: Assays were conducted in white 384-well polystyrene plates in a final reaction volume of 8 μL. […] HTRF signals were read after 1 hour at room temperature on a PHERAstar FS plate reader (BMG Labtech). Data was analyzed with IDBS XLFit and GraphPad Prism 5.0 software using a three or four parameter dose response curve to determine IC50 for each compound.

| SMILES | IC50 [nM] |
| --- | --- |
| Cc1nc(CN(C)C)ccc1-n1cnc(-c2nc(NC3CCN(S(C)(=O)=O)CC3)ncc2C(F)(F)F)c1 [Example 263, 4-(1-(6-((Dimethylamino)methyl)-2-methylpyridin-3-yl)-1H-imidazol-4-yl)-N-(1-(methylsulfonyl)piperidin-4-yl)-5-(trifluoromethyl)pyrimidin-2-amine] | ≤ 50 |
| Cc1nc(CN2CC(C)C2)ccc1-n1cnc(-c2nc(NC3CCN(S(C)(=O)=O)CC3)ncc2C(F)(F)F)c1 [Example 264, 4-(1-(2-Methyl-6-((3-methylazetidin-1-yl)methyl)pyridin-3-yl)-1H-imidazol-4-yl)-N-(1-(methylsulfonyl)piperidin-4-yl)-5-(trifluoromethyl)pyrimidin-2-amine] | ≤ 50 |
| Cc1nc(CN2CC(C)(C)C2)ccc1-n1cnc(-c2nc(NC3CCN(S(C)(=O)=O)CC3)ncc2C(F)(F)F)c1 [Example 265, 4-(1-(6-((3,3-Dimethylazetidin-1-yl)methyl)-2-methylpyridin-3-yl)-1H-imidazol-4-yl)-N-(1-(methylsulfonyl)piperidin-4-yl)-5-(trifluoromethyl)pyrimidin-2-amine] | ≤ 50 |
| CNCc1ccc(-n2cnc(-c3nc(NC4CCN(S(C)(=O)=O)CC4)ncc3C(F)(F)F)c2)c(F)c1 [Example 266, 4-(1-(2-Fluoro-4-((methylamino)methyl)phenyl)-1H-imidazol-4-yl)-N-(1-(methylsulfonyl)piperidin-4-yl)-5-(trifluoromethyl)pyrimidin-2-amine] | ≤ 50 |
| CN(C)Cc1ccc(-n2cnc(-c3nc(NC4CCN(S(C)(=O)=O)CC4)ncc3C(F)(F)F)c2)c(F)c1 [Example 267, 4-(1-(4-((Dimethylamino)methyl)-2-fluorophenyl)-1H-imidazol-4-yl)-N-(1-(methylsulfonyl)piperidin-4-yl)-5-(trifluoromethyl)pyrimidin-2-amine] | ≤ 50 |
| CNCc1ccc(-n2cnc(-c3nc(NC4CCN(S(C)(=O)=O)CC4)ncc3C(F)(F)F)c2)c(Cl)c1F [Example 268, 4-(1-(2-Chloro-3-fluoro-4-((methylamino)methyl)phenyl)-1H-imidazol-4-yl)-N-(1-(methylsulfonyl)piperidin-4-yl)-5-(trifluoromethyl)pyrimidin-2-amine] | ≤ 50 |
| CS(=O)(=O)N1CCC(Nc2ncc(C(F)(F)F)c(-c3cn(-c4ccc(CN5CCC5)c(F)c4Cl)cn3)n2)CC1 [Example 269, 4-(1-(4-(Azetidin-1-ylmethyl)-2-chloro-3-fluorophenyl)-1H-imidazol-4-yl)-N-(1-(methylsulfonyl)piperidin-4-yl)-5-(trifluoromethyl)pyrimidin-2-amine] | ≤ 50 |
| CC1CN(Cc2ccc(-n3cnc(-c4nc(NC5CCN(S(C)(=O)=O)CC5)ncc4C(F)(F)F)c3)c(Cl)c2F)C1 [Example 270, 4-(1-(2-Chloro-3-fluoro-4-((3-methylazetidin-1-yl)methyl)phenyl)-1H-imidazol-4-yl)-N-(1-(methylsulfonyl)piperidin-4-yl)-5-(trifluoromethyl)pyrimidin-2-amine] | ≤ 50 |
| Cc1cc(CN(C)C)ccc1-n1cnc(-c2nc(NC3CCN(S(C)(=O)=O)CC3)ncc2C(F)(F)F)c1 [Example 271, 4-(1-(4-((Dimethylamino)methyl)-2-methylphenyl)-1H-imidazol-4-yl)-N-(1-(methylsulfonyl)piperidin-4-yl)-5-(trifluoromethyl)pyrimidin-2-amine] | ≤ 50 |
| CNCc1ccc(-n2cnc(-c3nc(NC4CCN(S(C)(=O)=O)CC4)ncc3C(F)(F)F)c2)c(C)c1 [Example 272, 4-(1-(2-Methyl-4-((methylamino)methyl)phenyl)-1H-imidazol-4-yl)-N-(1-(methylsulfonyl)piperidin-4-yl)-5-(trifluoromethyl)pyrimidin-2-amine] | ≤ 50 |
| CCNC(C)c1ccc(-n2cnc(-c3nc(NC4CCN(S(C)(=O)=O)CC4)ncc3C(F)(F)F)c2)c(Cl)c1 (stereo not drawn) [Example 273, 4-(1-(2-Chloro-4-(1-(ethylamino)ethyl)phenyl)-1H-imidazol-4-yl)-N-(1-(methylsulfonyl)piperidin-4-yl)-5-(trifluoromethyl)pyrimidin-2-amine] | ≤ 50 |
| CC(c1ccc(-n2cnc(-c3nc(NC4CCN(S(C)(=O)=O)CC4)ncc3C(F)(F)F)c2)c(Cl)c1)N1CCC1 (stereo not drawn) [Example 274, 4-(1-(4-(1-(Azetidin-1-yl)ethyl)-2-chlorophenyl)-1H-imidazol-4-yl)-N-(1-(methylsulfonyl)piperidin-4-yl)-5-(trifluoromethyl)pyrimidin-2-amine] | ≤ 50 |
| Cc1nc(-c2nc(NC3CCN(S(C)(=O)=O)CC3)ncc2C(F)(F)F)cn1-c1ccc(CN(C)C)cc1F [Example 279, 4-(1-(4-((Dimethylamino)methyl)-2-fluorophenyl)-2-methyl-1H-imidazol-4-yl)-N-(1-(methylsulfonyl)piperidin-4-yl)-5-(trifluoromethyl)pyrimidin-2-amine] | ≤ 50 |
| [2H]C([2H])([2H])N(Cc1ccc(-n2cc(-c3nc(NC4CCN(S(C)(=O)=O)CC4)ncc3C(F)(F)F)nc2C)c(F)c1)C([2H])([2H])[2H] [Example 280, 4-(1-(4-((Bis(methyl-d)amino)methyl)-2-fluorophenyl)-2-methyl-1H-imidazol-4-yl)-N-(1-(methylsulfonyl)piperidin-4-yl)-5-(trifluoromethyl)pyrimidin-2-amine] | ≤ 50 |
| Cc1nc(-c2nc(NC3CCN(S(C)(=O)=O)CC3)ncc2C(F)(F)F)cn1-c1ccc(CN2CCC2)cc1F [Example 281, 4-(1-(4-(Azetidin-1-ylmethyl)-2-fluorophenyl)-2-methyl-1H-imidazol-4-yl)-N-(1-(methylsulfonyl)piperidin-4-yl)-5-(trifluoromethyl)pyrimidin-2-amine] | ≤ 50 |
| Cc1nc(-c2nc(NC3CCN(S(C)(=O)=O)CC3)ncc2C(F)(F)F)cn1-c1ccc(CN2CC(C(C)(C)O)C2)cc1F [Example 282, 2-(1-(3-Fluoro-4-(2-methyl-4-(2-((1-(methylsulfonyl)piperidin-4-yl)amino)-5-(trifluoromethyl)pyrimidin-4-yl)-1H-imidazol-1-yl)benzyl)azetidin-3-yl)propan-2-ol] | ≤ 50 |
| Cc1nc(-c2nc(NC3CCN(S(C)(=O)=O)CC3)ncc2C(F)(F)F)cn1-c1ccc(CN2CC(C)C2)cc1F [Example 283, 4-(1-(2-Fluoro-4-((3-methylazetidin-1-yl)methyl)phenyl)-2-methyl-1H-imidazol-4-yl)-N-(1-(methylsulfonyl)piperidin-4-yl)-5-(trifluoromethyl)pyrimidin-2-amine] | ≤ 50 |
| Cc1nc(-c2nc(NC3CCN(S(C)(=O)=O)CC3)ncc2C(F)(F)F)cn1-c1ccc(CN2CCC2)cc1Cl [Example 284, 4-(1-(4-(Azetidin-1-ylmethyl)-2-chlorophenyl)-2-methyl-1H-imidazol-4-yl)-N-(1-(methylsulfonyl)piperidin-4-yl)-5-(trifluoromethyl)pyrimidin-2-amine] | ≤ 50 |
| Cc1cc(CN2CCC2)ccc1-n1cc(-c2nc(NC3CCN(S(C)(=O)=O)CC3)ncc2C(F)(F)F)nc1C [Example 285, 4-(1-(4-(Azetidin-1-ylmethyl)-2-methylphenyl)-2-methyl-1H-imidazol-4-yl)-N-(1-(methylsulfonyl)piperidin-4-yl)-5-(trifluoromethyl)pyrimidin-2-amine] | ≤ 50 |
| Cc1nc(-c2nc(N[C@H]3CCN(S(C)(=O)=O)C[C@H]3F)ncc2C(F)(F)F)cn1-c1ccc(CN(C)C)cc1F [Example 286, 4-(1-(4-((Dimethylamino)methyl)-2-fluorophenyl)-2-methyl-1H-imidazol-4-yl)-N-((3R,4S)-3-fluoro-1-(methylsulfonyl)piperidin-4-yl)-5-(trifluoromethyl)pyrimidin-2-amine] | ≤ 50 |
| CNCc1ccc(-n2cc(-c3nc(N[C@H]4CCN(S(C)(=O)=O)C[C@H]4F)ncc3C(F)(F)F)nc2C)c(F)c1 [Example 287, N-((3R,4S)-3-Fluoro-1-(methylsulfonyl)piperidin-4-yl)-4-(1-(2-fluoro-4-((methylamino)methyl)phenyl)-2-methyl-1H-imidazol-4-yl)-5-(trifluoromethyl)pyrimidin-2-amine] | ≤ 50 |
| Cc1nc(-c2nc(NC3CCN(S(C)(=O)=O)CC3)ncc2C#N)cn1-c1ccc(CN(C)C)cc1Cl [Example 288, 4-(1-(2-Chloro-4-((dimethylamino)methyl)phenyl)-2-methyl-1H-imidazol-4-yl)-2-((1-(methylsulfonyl)piperidin-4-yl)amino)pyrimidine-5-carbonitrile] | ≤ 50 |
| CNCc1ccc(-n2cc(-c3nc(NC4CCN(S(C)(=O)=O)CC4)ncc3C#N)nc2C)c(Cl)c1 [Example 289, 4-(1-(2-Chloro-4-((methylamino)methyl)phenyl)-2-methyl-1H-imidazol-4-yl)-2-((1-(methylsulfonyl)piperidin-4-yl)amino)pyrimidine-5-carbonitrile] | ≤ 50 |
| Cc1nc(-c2nc(NC3CCN(S(C)(=O)=O)CC3)ncc2C#N)cn1-c1ccc(C#N)cc1F [Example 290, 4-(1-(4-Cyano-2-fluorophenyl)-2-methyl-1H-imidazol-4-yl)-2-((1-(methylsulfonyl)piperidin-4-yl)amino)pyrimidine-5-carbonitrile] | ≤ 50 |
| COc1nccc(-n2cnc(-c3nc(NC4CCN(S(C)(=O)=O)CC4)ncc3C(F)(F)F)c2)c1C#N [Example 291, 2-Methoxy-4-(4-(2-((1-(methylsulfonyl)piperidin-4-yl)amino)-5-(trifluoromethyl)pyrimidin-4-yl)-1H-imidazol-1-yl)nicotinonitrile] | ≤ 50 |
| Cc1c(-n2cnc(-c3nc(NC4CCN(S(C)(=O)=O)CC4)ncc3C(F)(F)F)c2)ccnc1C#N [Example 292, 3-Methyl-4-(4-(2-((1-(methylsulfonyl)piperidin-4-yl)amino)-5-(trifluoromethyl)pyrimidin-4-yl)-1H-imidazol-1-yl)picolinonitrile] | ≤ 50 |
| Cc1nccc(-n2cnc(-c3nc(NC4CCN(S(C)(=O)=O)CC4)ncc3C(F)(F)F)c2)c1C#N [Example 293, 2-Methyl-4-(4-(2-((1-(methylsulfonyl)piperidin-4-yl)amino)-5-(trifluoromethyl)pyrimidin-4-yl)-1H-imidazol-1-yl)nicotinonitrile] | ≤ 50 |
